From US10752624B2, “Kinase inhibitors” (Origenis GmbH, priority 2012, dated 2020) come the findings set out here.

For this test, the target named is LRRK2 (Homo sapiens, UniProt Q5S007). Description: LRRK2-LRRK2 G2019S-Assay (LanthaScreen Eu Kinase Binding Assay). The conditions noted are these: 5 nM LRRK2, 10 nM tracer 236, 2 nM EU-Anti-GST antibody, 1 h at RT; read-out: LRRK2 Activities: IC50. The essentials: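 Compound competition with Alexa Fluor 647 tracer 236 (10 nM) was measured after 1 h at room temperature, using 5 nM LRRK2 (wild type or mutant) bound to 2 nM Eu-anti-GST antibody. IC50 was derived from the acceptor/donor (665/615 nm) ratio using a variable-slope dose-response fit.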
Chain of LRRK2 (Q5S007 970-2527 limits assumed): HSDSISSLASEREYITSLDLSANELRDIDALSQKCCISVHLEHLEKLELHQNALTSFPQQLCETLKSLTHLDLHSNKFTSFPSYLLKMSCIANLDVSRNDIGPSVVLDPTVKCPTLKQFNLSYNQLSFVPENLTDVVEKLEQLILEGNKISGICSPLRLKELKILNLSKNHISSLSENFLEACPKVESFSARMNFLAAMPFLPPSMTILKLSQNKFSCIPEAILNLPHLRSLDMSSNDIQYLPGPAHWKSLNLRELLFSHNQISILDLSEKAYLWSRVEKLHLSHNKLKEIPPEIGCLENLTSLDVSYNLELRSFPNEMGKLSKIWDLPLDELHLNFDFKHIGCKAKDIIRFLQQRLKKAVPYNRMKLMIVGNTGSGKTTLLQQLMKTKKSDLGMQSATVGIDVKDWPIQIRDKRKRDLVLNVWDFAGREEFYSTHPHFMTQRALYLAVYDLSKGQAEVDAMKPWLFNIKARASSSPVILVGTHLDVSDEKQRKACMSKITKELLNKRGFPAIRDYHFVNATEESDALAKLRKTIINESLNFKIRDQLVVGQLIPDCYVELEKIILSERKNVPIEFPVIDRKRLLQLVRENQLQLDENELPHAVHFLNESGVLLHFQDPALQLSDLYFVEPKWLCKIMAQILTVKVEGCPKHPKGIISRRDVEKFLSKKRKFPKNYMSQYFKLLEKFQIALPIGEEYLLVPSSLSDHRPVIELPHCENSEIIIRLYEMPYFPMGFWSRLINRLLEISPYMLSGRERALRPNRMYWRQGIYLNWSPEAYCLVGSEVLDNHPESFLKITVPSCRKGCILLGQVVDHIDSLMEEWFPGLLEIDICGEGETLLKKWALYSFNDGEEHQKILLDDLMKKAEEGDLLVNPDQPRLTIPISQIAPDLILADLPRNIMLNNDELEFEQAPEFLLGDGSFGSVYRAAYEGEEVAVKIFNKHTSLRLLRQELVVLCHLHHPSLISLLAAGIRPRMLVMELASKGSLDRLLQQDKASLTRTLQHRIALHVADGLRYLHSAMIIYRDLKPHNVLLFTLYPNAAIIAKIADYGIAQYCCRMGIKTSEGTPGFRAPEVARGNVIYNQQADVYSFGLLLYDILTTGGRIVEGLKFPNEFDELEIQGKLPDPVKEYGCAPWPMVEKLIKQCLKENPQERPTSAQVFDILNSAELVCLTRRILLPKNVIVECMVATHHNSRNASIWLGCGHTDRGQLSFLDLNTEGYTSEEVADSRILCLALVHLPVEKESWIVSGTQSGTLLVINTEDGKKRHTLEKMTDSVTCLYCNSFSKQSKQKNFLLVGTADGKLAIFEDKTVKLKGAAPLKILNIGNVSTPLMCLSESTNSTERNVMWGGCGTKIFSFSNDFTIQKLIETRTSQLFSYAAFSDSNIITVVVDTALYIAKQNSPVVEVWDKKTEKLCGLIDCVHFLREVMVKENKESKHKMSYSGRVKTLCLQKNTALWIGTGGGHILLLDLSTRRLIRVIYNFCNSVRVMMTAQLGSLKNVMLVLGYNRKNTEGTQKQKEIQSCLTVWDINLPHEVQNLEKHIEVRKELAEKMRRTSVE
(In general: In TR-FRET formats the signal depends on donor and acceptor labels being close together.)

Regarding `Cc1c(Nc2nc3ccc(S(C)(=O)=O)cc3c3cn[nH]c23)cnn1C(C)C` [Example 214, N-(1-isopropyl-5-methyl-1H-pyrazol-4-yl)-8-(methylsulfonyl)-3H-pyrazolo[3,4-c]quinolin-4-amine], the IC50 is below 10 nM.
The figure for `COc1cc(Nc2nc3cccc(F)c3c3cn[nH]c23)ccc1N1CCOCC1` [Example 31, 9-fluoro-N-(3-methoxy-4-morpholinophenyl)-3H-pyrazolo[3,4-c]quinolin-4-amine] is 100 to 1000 nM; for `Cc1c(Nc2nc3ccc(S(C)(=O)=O)cc3c3cn[nH]c23)cnn1C1CCOCC1` [Example 281, N-(5-methyl-1-(tetrahydro-2H-pyran-4-yl)-1H-pyrazol-4-yl)-8-(methylsulfonyl)-3H-pyrazolo[3,4-c]quinolin-4-amine] it is 10 to 100 nM.
The figure for `COc1cccc2nc(Nc3ccc(N4CCOCC4=O)cc3)c3[nH]ncc3c12` [Example 60, 4-(4-((9-methoxy-3H-pyrazolo[3,4-c]quinolin-4-yl)amino)phenyl)morpholin-3-one] is 100 to 1000 nM.
The figure for `CN1CCN(C2CCN(c3ccc(Nc4nc5cccc(S(C)(=O)=O)c5c5cn[nH]c45)cc3)CC2)CC1` [Example 97, N-(4-(4-(4-methylpiperazin-1-yl)piperidin-1-yl)phenyl)-9-(methylsulfonyl)-3H-pyrazolo[3,4-c]quinolin-4-amine] is 100 to 1000 nM; for `CS(=O)(=O)c1cccc(Nc2nc3cccc(S(C)(=O)=O)c3c3cn[nH]c23)c1` [Example 107, 9-(methylsulfonyl)-N-(3-(methylsulfonyl)phenyl)-3H-pyrazolo[3,4-c]quinolin-4-amine] it is 100 to 1000 nM.
In the case of `COc1ccc2nc(Nc3cn(C)nc3C)c3n[nH]cc3c2c1` [Example 105, N-(1,3-dimethyl-1H-pyrazol-4-yl)-8-methoxy-2H-pyrazolo[3,4-c]quinolin-4-amine], the IC50 was in the range of 100 to 1000 nM.
Next, `COc1cc(Nc2nc3cccc(OC)c3c3cn[nH]c23)ccc1N1CCOCC1` [Example 16, 9-methoxy-N-(3-methoxy-4-morpholinophenyl)-3H-pyrazolo[3,4-c]quinolin-4-amine]: 10 to 100 nM; `CN1CCN(c2ccc(Nc3nc4cccc(S(C)(=O)=O)c4c4cn[nH]c34)cn2)CC1` [Example 100, N-(6-(4-methylpiperazin-1-yl)pyridin-3-yl)-9-(methylsulfonyl)-3H-pyrazolo[3,4-c]quinolin-4-amine]: 100 to 1000 nM; `COc1ccc2nc(Nc3ccc(C(=O)N4CCOCC4)c([N+](=O)[O-])c3)c3n[nH]cc3c2c1` [Example 35, (4-((8-methoxy-2H-pyrazolo[3,4-c]quinolin-4-yl)amino)-2-nitrophenyl)(morpholino)methanone]: 100 to 1000 nM.
For `CCN1C(=O)COc2ccc(Nc3nc4ccc(OC)cc4c4c[nH]nc34)cc21` [Example 318, 4-ethyl-6-((8-methoxy-2H-pyrazolo[3,4-c]quinolin-4-yl)amino)-2H-benzo[b][1,4]oxazin-3(4H)-one], the IC50 was 100 to 1000 nM.
On to `COc1ccc2nc(Nc3ccc(N4CCC(O)CC4)cc3)c3[nH]ncc3c2c1` [Example 296, 1-(4-((8-methoxy-3H-pyrazolo[3,4-c]quinolin-4-yl)amino)phenyl)piperidin-4-ol], for which the concentration for half-maximal inhibition (IC50) fell in the range of 10 to 100 nM.
Next, `COCCn1ncc(Nc2nc3cc(S(C)(=O)=O)ccc3c3cn[nH]c23)c1Cl` [Example 243, N-(5-chloro-1-(2-methoxyethyl)-1H-pyrazol-4-yl)-7-(methylsulfonyl)-3H-pyrazolo[3,4-c]quinolin-4-amine]: 10 to 100 nM; `CS(=O)(=O)c1cccc2nc(Nc3ccc(C(=O)N4CCOCC4)cc3)c3[nH]ncc3c12` [Example 94, (4-((9-(methylsulfonyl)-3H-pyrazolo[3,4-c]quinolin-4-yl)amino)phenyl)(morpholino)methanone]: 100 to 1000 nM.
As to `CC(C)(C)N1CCN(c2ccc(Nc3nc4cccc(S(C)(=O)=O)c4c4cn[nH]c34)cc2)CC1` [Example 95, N-(4-(4-(tert-butyl)piperazin-1-yl)phenyl)-9-(methylsulfonyl)-3H-pyrazolo[3,4-c]quinolin-4-amine], the IC50 was 100 to 1000 nM.
The figure for `COCCn1cc(Nc2nc3ccc(S(C)(=O)=O)cc3c3cn[nH]c23)c(C#N)n1` [Example 274, 1-(2-methoxyethyl)-4-((8-(methylsulfonyl)-3H-pyrazolo[3,4-c]quinolin-4-yl)amino)-1H-pyrazole-3-carbonitrile] is 10 to 100 nM.
Next, `COc1ccc(Nc2nc3cccc(S(C)(=O)=O)c3c3cn[nH]c23)cc1OC` [Example 99, N-(3,4-dimethoxyphenyl)-9-(methylsulfonyl)-3H-pyrazolo[3,4-c]quinolin-4-amine]: 100 to 1000 nM; `CC(=O)N1CCN(c2ccc(Nc3nc4c(F)cccc4c4cn[nH]c34)cc2)CC1` [Example 53, 1-(4-(4-((6-fluoro-3H-pyrazolo[3,4-c]quinolin-4-yl)amino)phenyl)piperazin-1-yl)ethan-1-one]: 100 to 1000 nM.
The figure for `CN1CCC(n2cc(Nc3nc4ccc(S(C)(=O)=O)cc4c4cn[nH]c34)cn2)CC1` [Example 154, N-(1-(1-methylpiperidin-4-yl)-1H-pyrazol-4-yl)-8-(methylsulfonyl)-3H-pyrazolo[3,4-c]quinolin-4-amine] is below 10 nM; for `COc1ccc2nc(Nc3ccc(F)c(S(C)(=O)=O)c3)c3n[nH]cc3c2c1` [Example 4, N-(4-fluoro-3-(methylsulfonyl)phenyl)-8-methoxy-2H-pyrazolo[3,4-c]quinolin-4-amine] it is 100 to 1000 nM; for `CS(=O)(=O)c1cccc2nc(Nc3ccc(N4CCOCC4)cc3)c3[nH]ncc3c12` [Example 92, 9-(methylsulfonyl)-N-(4-morpholinophenyl)-3H-pyrazolo[3,4-c]quinolin-4-amine] it is below 10 nM.
With `CS(=O)(=O)c1ccc2c(c1)nc(Nc1cnn(C3CCOCC3)c1)c1[nH]ncc12` [Example 169, 7-(methylsulfonyl)-N-(1-(tetrahydro-2H-pyran-4-yl)-1H-pyrazol-4-yl)-3H-pyrazolo[3,4-c]quinolin-4-amine], the 50% inhibitory concentration (IC50) was 10 to 100 nM.
As to `COc1ccc2nc(Nc3cnn(C4CCN(C(C)=O)CC4)c3)c3n[nH]cc3c2c1` [Example 112, 1-(4-(4-((8-methoxy-2H-pyrazolo[3,4-c]quinolin-4-yl)amino)-1H-pyrazol-1-yl)piperidin-1-yl)ethan-1-one], the IC50 is 10 to 100 nM.
The figure for `COc1ccc(Nc2nc3ccc(S(C)(=O)=O)cc3c3cn[nH]c23)cc1OC` [Example 63, N-(3,4-dimethoxyphenyl)-8-(methylsulfonyl)-3H-pyrazolo[3,4-c]quinolin-4-amine] is 10 to 100 nM; for `COc1ccc2nc(Nc3ccc4c(c3)S(=O)(=O)CC4)c3n[nH]cc3c2c1` [Example 12, 6-((8-methoxy-2H-pyrazolo[3,4-c]quinolin-4-yl)amino)-2,3-dihydrobenzo[b]thiophene 1,1-dioxide] it is 100 to 1000 nM.
The figure for `COc1cccc2nc(Nc3ccc(N4CCOCC4)c(F)c3)c3[nH]ncc3c12` [Example 27, N-(3-fluoro-4-morpholinophenyl)-9-methoxy-3H-pyrazolo[3,4-c]quinolin-4-amine] is 10 to 100 nM.
For `COc1cccc2nc(Nc3ccc(N4CCN(S(C)(=O)=O)CC4)cc3)c3[nH]ncc3c12` [Example 59, 9-methoxy-N-(4-(4-(methylsulfonyl)piperazin-1-yl)phenyl)-3H-pyrazolo[3,4-c]quinolin-4-amine], the 50% inhibitory concentration (IC50) was in the range of 10 to 100 nM.
The figure for `O=C(c1ccc(Nc2nc3cccc(F)c3c3cn[nH]c23)cc1)N1CCOCC1` [Example 29, (4-((9-fluoro-3H-pyrazolo[3,4-c]quinolin-4-yl)amino)phenyl)(morpholino)methanone] is 100 to 1000 nM; for `CC(C)n1ncc(Nc2nc3ccc(S(C)(=O)=O)cc3c3cn[nH]c23)c1C(N)=O` [Example 251, 1-isopropyl-4-((8-(methylsulfonyl)-3H-pyrazolo[3,4-c]quinolin-4-yl)amino)-1H-pyrazole-5-carboxamide] it is 100 to 1000 nM.
The figure for `COc1cc(OC)c2nc(Nc3ccc(C(=O)N4CCOCC4)cc3)c3[nH]ncc3c2c1` [Example 308, (4-((6,8-dimethoxy-3H-pyrazolo[3,4-c]quinolin-4-yl)amino)phenyl)(morpholino)methanone] is 10 to 100 nM; for `COc1ccc2nc(Nc3ccc(N4CCOCC4)c(S(C)(=O)=O)c3)c3n[nH]cc3c2c1` [Example 90, 8-methoxy-N-(3-(methylsulfonyl)-4-morpholinophenyl)-2H-pyrazolo[3,4-c]quinolin-4-amine] it is 100 to 1000 nM; for `Cc1c(Nc2nc3ccc(S(C)(=O)=O)cc3c3cn[nH]c23)cnn1CCF` [Example 270, N-(1-(2-fluoroethyl)-5-methyl-1H-pyrazol-4-yl)-8-(methylsulfonyl)-3H-pyrazolo[3,4-c]quinolin-4-amine] it is below 10 nM.
Next, `Cc1c(Nc2nc3cc(S(C)(=O)=O)ccc3c3cn[nH]c23)cnn1C(C)C` [Example 244, N-(1-isopropyl-5-methyl-1H-pyrazol-4-yl)-7-(methylsulfonyl)-3H-pyrazolo[3,4-c]quinolin-4-amine]: 10 to 100 nM; `COCCn1ncc(Nc2nc3ccc(S(C)(=O)=O)cc3c3cn[nH]c23)c1C` [Example 282, N-(1-(2-methoxyethyl)-5-methyl-1H-pyrazol-4-yl)-8-(methylsulfonyl)-3H-pyrazolo[3,4-c]quinolin-4-amine]: 100 to 1000 nM.
For the compound `Cc1nn(CC(C)(C)O)cc1Nc1nc2ccc(S(C)(=O)=O)cc2c2c[nH]nc12` [Example 325, 2-methyl-1-(3-methyl-4-((8-(methylsulfonyl)-2H-pyrazolo[3,4-c]quinolin-4-yl)amino)-1H-pyrazol-1-yl)propan-2-ol], the IC50 was 100 to 1000 nM.
The figure for `CC(C)(O)Cn1cc(Nc2nc3ccc(S(C)(=O)=O)cc3c3cn[nH]c23)cn1` [Example 317, 2-methyl-1-(4-((8-(methylsulfonyl)-3H-pyrazolo[3,4-c]quinolin-4-yl)amino)-1H-pyrazol-1-yl)propan-2-ol] is 10 to 100 nM.

In general, IC50 refers to the concentration needed to halve the response being measured.
